Results as given in US20170298361A1, “USE OF AGENTS FOR TREATING FAT-RELATED DISORDERS” (Yeda Research and Development Co. Ltd., priority 2014, published 2017).
Entries after “also recorded” stand apart in the source; their conditions may differ. Peptide text beside a SMILES is read from it. * marks the point of attachment. Cbz = O=C(OCc1ccccc1)*

Tests used:
PPARγ2 = PPARγ2 accumulation after proteasomal inhibition in c-Abl-depleted 3T3-L1 cells (immunoblotting); type: cell-based, mouse; details: c-Abl-depleted 3T3-L1, day 5 of differentiation, 25 μg MG-132, lysed after 5 h
Method: FIGS. 2A-C illustrate that c-Abl prolongs PPARγ2 half-life. (A) Proteasomal inhibition in mid-differentiation results in PPARγ2 accumulation. 3T3-L1 cells expressing shRNA to GFP (control) or c-Abl were induced to differentiate using insulin, dexamethasone and IBMX. On day 5, cells were treated with 25 μg MG-132 and lysed after 5 h. Protein levels were analyzed by immunoblotting. (B) c-Abl stabilizes PPARγ2. HEK293 cells were transfected with plasmids expressing HA-PPARγ2 with or without active c-Abl. Twenty-four hours after transfection, cells were treated with 20 μg/ml cycloheximide for different time points. […] The ratio between immunoprecipitated poly-ubiquitinated PPARγ2 ladder and PPARγ2 protein level from 3 independent experiments was quantified (*** −p<0.005).
The present inventors investigated whether c-Abl might play a role in PPARγ2 accumulation. […] Next, the present inventors measured PPARγ2 protein half-life in the presence or absence of an active form of c-Abl (41-81 c-Abl). […] To investigate the possibility that c-Abl supports PPARγ2 stabilization via inhibition of the poly-ubiquitination of PPARγ2, an octameric tandem fusion of HA-tagged ubiquitin was co-expressed together with Flag-tagged PPARγ2 with or without active c-Abl and the pattern of the poly-ubiquitinated PPARγ2 ladder was analyzed.

CML patients = details: Fitter S, et al. (2010); cited from earlier work
[1] = system: mesenchymal stromal cells; details: Fitter S, et al. (2008); cited from earlier work
3T3-L1 cells = experiment: Adipocyte differentiation of 3T3-L1 cells, oil red O staining; type: cell-based, mouse
Method: FIGS. 1A-E illustrate that c-Abl is required for adipocyte differentiation. (A) c-Abl activity increases during adipogenesis. 3T3-L1 adipoblasts were induced to differentiate with medium containing 5 μg/ml Insulin, 1 μM Dexamethasone and 0.5 mM IBMX. Cells were lysed at the indicated times and protein levels were analyzed by Western blotting. The proteasomal subunit PSMA4 served as a loading control. […] Cells were stained with oil red O and photographed at day 8. (C) c-Abl is required in adipocyte differentiation. 3T3-L1 expressing shRNA against either GFP or c-Abl were induced to differentiate and stained with oil red 0 at day 10. (D) c-Abl is required for expression of PPARγ and its target genes during adipogenesis. 3T3-L1 cells expressing shRNA against either GFP or c-Abl were induced to differentiate as in (A). Cells were lysed at the indicated times and protein levels were analyzed by Western blotting. (E) c-Abl is required for transcription of PPARγ pro-adipogenic target genes but not for transcription of PPARγ itself. At day 4 of differentiation, RNA from 3T3-L1 cells was analyzed for mRNA expression of the indicated genes by quantitative PCR.
FIG. 15 are photographs illustrating differentiation of 3T3-L1 preadipocytes with or without Chk1 inhibitor, UCN-01. […]

[2] = system: PPARγ2 (wild type, Flag-tagged)

## CC(C)C[C@@H](C=O)NC(=O)[C@H](CC(C)C)NC(=O)[C@H](CC(C)C)NC(=O)OCc1ccccc1 [MG-132] (Cbz-Leu-Leu-Leu-aldehyde)
PPARγ2
  PPARγ2 protein level: markedly increased

## Cc1ccc(NC(=O)c2ccc(CN3CCN(C)CC3)cc2)cc1Nc1nccc(-c2cccnc2)n1 [STI-571, imatinib]
CML patients
  fat accumulation: associated with fat accumulation
  insulin sensitivity: improved insulin sensitivity
[1]
  adipocytic differentiation of mesenchymal stromal cells: promote adipocytic differentiation
3T3-L1 cells; 3T3-L1 induced with insulin, dexamethasone, IBMX, STI-571 added 7 hours after differentiation onset until day 5, oil red O at day 8, even at low inhibitor concentration
  adipogenesis (adipocyte differentiation): markedly reduced; also recorded: inhibits adipocyte differentiation

## CN[C@@H]1C[C@H]2O[C@@](C)([C@@H]1OC)n1c3ccccc3c3c4c(c5c6ccccc6n2c5c31)C(=O)N[C@@H]4O [UCN-01]
3T3-L1 cells; with or without Chk1 inhibitor UCN-01 (FIG. 15)
  differentiation of 3T3-L1 preadipocytes: completely inhibit

## c-Abl Δ1-81 (active form of c-Abl)
PPARγ2 P12A variant
  tyrosine phosphorylation detected with anti-phosphotyrosine antibody (PY20) after immunoprecipitation using anti-Flag beads: the P12A variant was inefficient in binding to c-Abl and in undergoing phosphorylation by the kinase
HA-PPARγ1
  tyrosine phosphorylation detected with anti-phosphotyrosine antibody (PY20) after immunoprecipitation using anti-HA beads: HA-PPARγ1 was only poorly phosphorylated by c-Abl
[2]
  tyrosine phosphorylation of PPARγ2 detected with anti-phosphotyrosine antibody (PY20) after immunoprecipitation: unlike HA-PPARγ2, HA-PPARγ1 was only poorly phosphorylated by c-Abl (FIG. 3D). Similar results were obtained using Flag-PPARγ2
